Results from patent publication US20200362303A1, “MAINTENANCE-AND-AMPLIFICATION METHOD AND DIFFERENTIATION INDUCTION METHOD FOR PRIMORDIAL GERM CELLS/PRIMORDIAL GERM CELL-LIKE CELLS” (KYOTO UNIVERSITY, priority 2017, published 2020).

Key:
BV (+) d4 PGCLCs = assay: Compound library screening for PGCLC proliferation (BV fluorescence by cell analyzer); assay type: cell-based, mouse; conditions: 10 μM; day 7 of culture
Description: d4 PGCLC was seeded by FACS on m220-5 feeders in 96-well plates and BV fluorescence was monitored by cell analyzer (Cellavista; SynenTec). Fluorescence photograph for BV was taken by Cellavista cell analyzer with the following settings: 10× objectives; exposure time: 140 μsec; gain: 4×; binning: 4×4; excitation: 500/24 nm; emission: 542/27 nm. BV fluorescence was detected using the following algorithm/attribute parameters: sensitivity: 10; region merging: 200; min. granule intensity: 50; well edge distance: 200; contrast: 1; size: 3,000; intensity: 255; roughness: 500; granularity: 100; granule intensity: 255; granule count: 10,000; longishness: 100; compactness: 1. The value of “cell nucleus” was used for the detection of BV fluorescence.
The compound library was screened at concentrations of 10 μM and 1 μM. […] 200 BV (+) d4 PGCLCs induced from BDF1-2 ESC were seeded in the wells of a 96-well plate, and BV fluorescence was measured on the Cellavista cell analyzer on day 1 of culture (c1), c3, c5 and c7. The value of “cell nucleus” was used for the detection of BV fluorescence. […] For each compound, the fold difference in BV fluorescence between c1 and c7 was calculated for each compound and compounds with a fold difference value exceeding 3SD of the mean of the negative control were identified as those that potentiate PGCLC proliferation.

d4 PGCLC [1] = assay: Measurement of intracellular cAMP concentration (cAMPGlo Max assay); assay type: cell-based, mouse; conditions: pretreated 30 min at room temperature
Description: The intracellular cAMP concentration was measured using cAMPGlo Max assay kit (Promega) according to the manufacturer's instructions. A standard curve using purified cAMP was prepared by calculating the Δrelative light unit (ΔRLU) (RLU [0 nM]-RLU [X nM]). For each sample, 1×10^4 d4 PGCLC was pretreated with forskolin and/or rolipram for 30 min at room temperature and the ΔRLU (RLU [untreated sample-RLU [treated sample]) was calculated. An increase in the intracellular cAMP level due to chemical treatments was inferred from the cAMP standard curve. Three biological replicates were analyzed for each sample.

PGCLC = assay: CsA or FK506 alone at various concentrations on PGCLC proliferation (fold difference d7/d1); assay type: cell-based, mouse; conditions: 10, 5, 1, 0 μM, in place of FR10
cultured PGCLC = assay: Immunofluorescence analysis of STRA8, SCP3, DDX4 in cultured PGCLC; assay type: cell-based, mouse; conditions: cultured PGCLC, c9; BMP4, 5, 7 combined with RA; BMS493 with BMP2; LDN193189 with RA and BMP2
Description: (§1) The PGC/PGCLC expansion medium was constituted of 10% KSR, 2.5% FBS, 0.1 mM NEAA, 1 mM sodium pyruvate, 2 mM L-glutamine, 0.1 mM 2-mercaptoethanol, 100 U/ml penicillin, 0.1 mg/ml […] streptomycin, […] forskolin, and 10 μM rolipram. The entire medium was changed every 2 days from c3. Cytokines/compounds for induction of female fate were provided from c3 to the end of culture. RA and BMP concentrations used were 100 nM and 300 ng/ml, respectively, unless otherwise specified. Brightfield and fluorescence images were captured using an IX73 inverted microscope (Olympus).
Immunofluorescence (IF) analysis was performed as described previously (Hayashi et al, 2012). The following primary antibodies were used: chicken anti-GFP (ab13970; Abeam), rabbit anti-DDX4 (ab13840; Abeam), mouse anti-DDX4 (ab27591; Abeam), rabbit anti-DAZL (ab34129; Abeam), goat anti-DAZL (sc-27333; Santa Cruz), rabbit anti-STRA8 (ab49602; Abeam), mouse anti-SYCP3 (ab97672; Abeam) and rabbit anti-TEX14 (ab41733; Abeam)IgG. The following secondary antibodies were used: Alexa Fluor 488-goat anti-mouse or chicken IgG; Alexa Fluor 568-goat anti-rabbit IgG and Alexa Fluor 633-goat anti-mouse, anti-chicken IgG; Alexa Fluor 488-donkey anti-mouse IgG; Alexa Fluor 568-donkey anti-rabbit IgG and Alexa Fluor 633-donkey anti-goat IgG. IF images were acquired using a confocal microscope [FV1000 (Olympus) or LSM780 (Zeiss)].

BMP signaling pathway = assay: BMP signaling in PGCLC: pSMAD1/5/8 (Western blot) and Id1/Id2 expression; assay type: cell-based, mouse; conditions: PGCLC stimulated by RA and BMP2
Description: For Western blot analysis, 5×10^4 cells were lysed in SDS sample buffer [62.5 mM Tris-HCl (pH 6.8), 2% SDS, 10% glycerol, 0.025% bromophenol blue and 0.14 M-mercaptoethanol] at 90° C. for 5 min. For detection of phosphorylated (p)SMAD1/5/8, the cells were treated with PhosSTOP (Roche) and complete protease inhibitor cocktail (Roche) before lysis. The extracted protein was separated by SuperSep Ace 10-20% gel (Wako), blotted on iBlot2 PVDF transfer membrane (Thermo Fisher) by iBlot2 dry blotting system (Thermo Fisher), and incubated with the primary antibody: rabbit anti-STRA8 IgG (ab49405; Abeam), mouse anti-α tubulin (T9026; Sigma-Aldrich), rabbit anti-pSMAD1/5/8 IgG (#9511; CST), or rabbit anti-SMAD1 IgG (#97435 CST). Primary antibodies were detected with goat anti-rabbit IgG or sheep anti-mouse IgG conjugated to HRP (A0545, M8642; Sigma-Aldrich), followed by Chemi-Lumi One Super (Nacalai). Chemiluminescence image acquisition and analysis was performed using the Fusion Solo system and Fusion-Capt software (M & S Instruments).
(§2) qPCR was performed using CFX384 (Bio-Rad) and Power SYBR Green (ABI, Foster City, Calif.) according to the manufacturer's instructions. Template cDNA was prepared as described in the “Transcriptome analysis” section and the primers used are listed in Primers.

[2] = test system: female germ cell fate in embryos; assay: Administration of LDN193189 to pregnant females, germ cell fate at E14.5; assay type: in vivo, mouse
Description: To administer LDN-193189 to pregnant females (ICR), LDN-193189 (sm10559; Sigma-Aldrich) is dissolved in sterile water, and 2.5 mg LDN-193189 was injected intraperitoneally every 12 hours from E11 to E14 per kg body weight.
as §2

d4 PGCLC [3] = assay: Expansion culture of d4 PGCLC on m220-5 feeder (cell number fold increase); assay type: cell-based, mouse; conditions: 10 μM alone; BVSC BDF1-2; SCF, m220 feeder
Description: Since the m220-5 feeder treated with MMC was vulnerable to forskolin and rolipram, m220-5 cells were subcultured 3 times with both forskolin and rolipram each at 10 μM and adapted to these compounds before MMC treatment (1-2 μg/ml for 2 hr). d4 PGCLC or E9.5 PGC(BDF1×Stella-EGFP) was selected by FACS, and the cells were seeded on m220-5 cells in GMEM medium containing 10% KSR, 0.1 mM NEAA, 1 mM sodium pyruvate, 0.1 mM 2-mercaptoethanol, 100 U/ml penicillin, 0.1 mg/ml streptomycin, 2 mM L-glutamine, 2.5% FCS, 100 ng/ml SCF, 10 μM forskolin, and 10 μM rolipram. Half of the culture medium was changed every 2 days.
Expansion culture of PGC/PGCLC to investigate the combined effect of cyclosporin A (CsA) was performed as in Example [I], except that 5 μM CsA was added to the medium in addition to 10 μM forskolin and 10 μM loripram (FR10).

[4] = test system: PGCLC induced from BVSCDT ESC(XY); assay: Screening for factors inducing female germ cell fate: DT and BV expression by FACS at c7; assay type: cell-based, mouse; conditions: added from c3, read at c7; RA 100 nM, cytokines 500 ng/ml; BMPs in combination with RA
Description: as §1
The preparation of d4/c0 PGCLC for FACS is described in “ESC culture/induction and PGCLC induction/culture”. To isolate germ cells in vivo, fetal gonads of BVSC, VR or SG mice were cut and processed for FACS according to the procedure described for d4/c0 PGCLC. Culture PGCLC was also prepared by the same method except that, after dissociation, the cells were washed with 0.1% BSA-DMEM containing 100 μg/ml DNase (Sigma-Aldrich), lysed DNA from dead cells was digested to prevent the formation of cell/debris clumps. Fluorescent activity of BV/SG, SC, or DT/VR was detected with FITC, Horizon V500 or PE-Texas Red channels, respectively. FACS data was analyzed using FlowJo or FACS Diva software package.
In the signal inhibitory experiment, LDN193189 (#04-0074; Stemgent) and BMS493 (B6688; Sigma-Aldrich) dissolved in DMSO were used as ALK2/3 inhibitor and RAR inhibitor, respectively.

COc1cccc(Nc2c(C(N)=O)cnc3c(C)cc(S(=O)(=O)c4cccc(C(=O)N(C)C)c4)cc23)c1 [GSK256066]
colony formation of BV(+) cells (BV (+) d4 PGCLCs): formation of plural colonies with unique flat morphology

C=C[C@@]1(C)CC(=O)[C@]2(O)[C@@]3(C)[C@@H](O)CCC(C)(C)[C@@H]3[C@H](O)[C@H](OC(C)=O)[C@@]2(C)O1 [forskolin]
cAMP concentration in PGCLC (d4 PGCLC [1]): about 4 nM/1×10^4 d4 PGCLC

C=CC[C@@H]1/C=C(\C)C[C@H](C)C[C@H](OC)[C@H]2O[C@@](O)(C(=O)C(=O)N3CCCC[C@H]3C(=O)O[C@H](/C(C)=C/[C@@H]3CC[C@@H](O)[C@H](OC)C3)[C@H](C)[C@@H](O)CC1=O)[C@H](C)C[C@@H]2OC [FK506, tacrolimus]
proliferative effect on PGCLCs (PGCLC): did not have a proliferative effect

CC1(C)CC=C(C#Cc2ccccc2)c2cc(/C=C/c3ccc(C(=O)O)cc3)ccc21 [BMS493]
induction of VR/DDX4 and SCP3 (+) cells (meiotic entry) (cultured PGCLC): abolished upregulation of VR/DDX4 as well as induction of SCP3

c1ccc2c(-c3cnn4cc(-c5ccc(N6CCNCC6)cc5)cnc34)ccnc2c1 [LDN193189]
pSMAD1/5/8 and Id1, Id2 expression (BMP signaling pathway): blocked such effects
induction of VR/DDX4 and SCP3 (+) cells (meiotic entry) (cultured PGCLC): blocked RA- and BMP2-induced VR activation and meiotic entry in a dose-dependent manner
progression to female germ cell fate ([2]; every 12 hr from E11.5 to E14.0, read at E14.5): caused a significant impairment of progression to female germ cell fate
expression of key genes of late PGC/female germ cell development (qPCR) ([2]; female VR(+) cells at E14.5): up-regulated key genes in late PGC/female germplasm development
male germ cell development (qPCR) ([2]; male VR(+) cells at E14.5): unaffected

COc1ccc(C2CNC(=O)C2)cc1OC1CCCC1 (centres unmarked) [rolipram]
cAMP concentration in PGCLC (d4 PGCLC [1]): about 4 nM/1×10^4 d4 PGCLC
effect on proliferation of d4 PGCLC (compound alone) (d4 PGCLC [3]): relatively mild

B1: BMP5: bone morphogenetic protein 5 cytokine (R&D Systems) (protein, UniProt P22003 317-454, looked up)
Bone morphogenetic protein 5: AANKRKNQNRNKSSSHQDSSRMSSVGDYNTSEQKQACKKHELYVSFRDLGWQDWIIAPEGYAAFYCDGECSFPLNAHMNATNHAIVQTLVHLMFPDHVPKPCCAPTKLNAISVLYFDDSSNVILKKYRNMVVRSCGCH
induction of VR/DDX4 and SCP3 (+) cells (meiotic entry) (cultured PGCLC): able to induce VR/DDX4 and SCP3(+) cells
DT and BV expression in BV (+) cells [4]: strongly activated DT and simultaneously down-regulated BV

B2: BMP7: bone morphogenetic protein 7 cytokine (R&D Systems) (protein, UniProt P18075 293-431, looked up)
Bone morphogenetic protein 7: STGSKQRSQNRSKTPKNQEALRMANVAENSSSDQRQACKKHELYVSFRDLGWQDWIIAPEGYAAYYCEGECAFPLNSYMNATNHAIVQTLVHFINPETVPKPCCAPTQLNAISVLYFDDSSNVILKKYRNMVVRACGCH
induction of VR/DDX4 and SCP3 (+) cells (meiotic entry) (cultured PGCLC): able to induce VR/DDX4 and SCP3(+) cells
DT and BV expression in BV (+) cells [4]: strongly activated DT and simultaneously down-regulated BV

B3: BMP4: bone morphogenetic protein 4 cytokine (R&D Systems) (protein, UniProt P12644 293-408, looked up)
Bone morphogenetic protein 4: SPKHHSQRARKKNKNCRRHSLYVDFSDVGWNDWIVAPPGYQAFYCHGDCPFPLADHLNSTNHAIVQTLVNSVNSSIPKACCVPTELSAISMLYLDEYDKVVLKNYQEMVVEGCGCR
induction of VR/DDX4 and SCP3 (+) cells (meiotic entry) (cultured PGCLC): able to induce VR/DDX4 and SCP3(+) cells
DT and BV expression in BV (+) cells [4]: strongly activated DT and simultaneously down-regulated BV
